Reference: ChEMBL document CHEMBL4814018, “Rationally designed TNF-α inhibitors: Identification of promising cytotoxic agents” (Bioorg Med Chem Lett, 2021)
Calls of active or inactive are those of the source. No cut-off for these calls is given here.

Legend:
SR = test: Growth inhibition of human SR cells at 10 uM incubated for 48 hrs by sulforhodamine B assay relative to control; assay type: functional; conditions: read-out: GI
RPMI-8226 = test: Growth inhibition of human RPMI8226 cells at 10 uM incubated for 48 hrs by sulforhodamine B assay relative to control; assay type: functional; conditions: read-out: GI
BV-2 [1] = test: Antiinflammatory activity against mouse BV2 cells assessed as decrease in LPS-induced NO production at 1 to 5 uM pretreated with compound followed by LPS stimulation incubated for 4 to 48 hrs by enzyme immunoassay; assay type: functional, cell-based; conditions: dose 1-5 µM, time 4-48 hrs
MCF7 = test: Growth inhibition of human MCF7 cells at 10 uM incubated for 48 hrs by sulforhodamine B assay relative to control; assay type: functional; conditions: read-out: GI
CAKI-1 = test: Growth inhibition of human CAKI-1 cells at 10 uM incubated for 48 hrs by sulforhodamine B assay relative to control; assay type: functional; conditions: read-out: GI
OVCAR-3 = test: Growth inhibition of human OVCAR-3 cells at 10 uM incubated for 48 hrs by sulforhodamine B assay relative to control; assay type: functional; conditions: read-out: GI
BV-2 [2] = test: Antiinflammatory activity against mouse BV2 cells assessed as inhibition of LPS-induced TNFalpha production at 1 uM by enzyme immunoassay; assay type: functional
BV-2 [3] = test: Antiinflammatory activity against mouse BV2 cells assessed as reduction in LPS-induced IL6 production at 1 uM by enzyme immunoassay; assay type: functional, cell-based
BV-2 [4] = test: Cytotoxicity against mouse BV2 cells incubated for 48 hrs by MTT assay; assay type: cell-based; conditions: BV-2, 48 h
HCT-116 = test: Growth inhibition of human HCT-116 cells at 10 uM incubated for 48 hrs by sulforhodamine B assay relative to control; assay type: functional; conditions: read-out: GI
SW-620 = test: Growth inhibition of human SW-620 cells at 10 uM incubated for 48 hrs by sulforhodamine B assay relative to control; assay type: functional; conditions: read-out: GI
K562 = test: Growth inhibition of human K562 cells at 10 uM incubated for 48 hrs by sulforhodamine B assay relative to control; assay type: functional; conditions: read-out: GI
MDA-MB-231 = test: Growth inhibition of human MDA-MB-231 cells at 10 uM incubated for 48 hrs by sulforhodamine B assay relative to control; assay type: functional; conditions: read-out: GI
[5] = Therapeutic index, ratio of LC50 for human Panel NCI-60 (60 carcinoma cell lines) to GI50 for human Panel NCI-60 (60 carcinoma cell lines); assay type: functional

Cc1ccc(S(=O)(=O)n2cc(C3C(Cl)C(=O)N3c3ccc(N4CCOCC4=O)cc3)c3ccccc32)cc1 (centres undefined)
inhibition of growth at 10 µM (SR): 75% | inhibition of growth at 10 µM (RPMI-8226): 78% | Activity (BV-2 [1]): Active | inhibition of growth at 10 µM (MCF7): 80% | inhibition of growth at 10 µM (CAKI-1): 75% | inhibition of growth at 10 µM (OVCAR-3): 70% | Activity (BV-2 [2]): Active | Activity (BV-2 [3]): Active | IC50 (BV-2 [4]): > 10 µM | inhibition of growth at 10 µM (HCT-116): 83% | inhibition of growth at 10 µM (SW-620): 74% | inhibition of growth at 10 µM (K562): 77% | inhibition of growth at 10 µM (MDA-MB-231): 83%

O=C1COCCN1c1ccc(N2C(=O)C(Cl)C2c2cn(Cc3ccccc3)c3ccccc23)cc1 (centres undefined)
IC50 (BV-2 [4]): > 10 µM

O=c1[nH]cc(F)c(=O)[nH]1 [FLUOROURACIL]
TI [5]: >133

C=CCn1cc(C2C(Cl)C(=O)N2c2ccc(N3CCOCC3=O)cc2)c2ccccc21 (centres undefined)
IC50 (BV-2 [4]): > 10 µM

O=C1COCCN1c1ccc(N2C(=O)C(Cl)C2c2cn(Cc3ccc4ccccc4c3)c3ccccc23)cc1 (centres undefined)
Activity (BV-2 [2]): Active | Activity (BV-2 [3]): Active | IC50 (BV-2 [4]): > 10 µM
